Results as given in article PMC10882719 (Frontiers in Neuroscience, 2024).
Read-outs that look alike come from different tables or passages of the source.

What was measured:
Assay type in all cases: cell-based
[1] = target: T1, 168 GPCRs (Homo sapiens, UniProt P43115); conditions: PTGER3
T1 construct: host or cells: PathHunter cell lines
T1 sequence (P43115 1-390): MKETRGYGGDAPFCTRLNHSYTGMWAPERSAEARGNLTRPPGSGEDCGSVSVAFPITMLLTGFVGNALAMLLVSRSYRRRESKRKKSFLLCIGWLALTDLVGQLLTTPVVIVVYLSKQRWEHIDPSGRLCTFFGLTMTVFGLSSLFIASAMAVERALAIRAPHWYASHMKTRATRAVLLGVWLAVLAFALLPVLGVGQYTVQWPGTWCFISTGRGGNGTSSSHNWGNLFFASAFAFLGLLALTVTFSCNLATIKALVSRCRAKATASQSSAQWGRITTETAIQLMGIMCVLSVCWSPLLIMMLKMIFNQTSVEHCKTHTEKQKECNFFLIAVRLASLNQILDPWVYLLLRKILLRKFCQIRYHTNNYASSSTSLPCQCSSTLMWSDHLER

[2] = target: T2, 168 GPCRs (Homo sapiens, UniProt P32248)
T2 construct: host or cells: PathHunter cell lines
T2 sequence (P32248 25-378): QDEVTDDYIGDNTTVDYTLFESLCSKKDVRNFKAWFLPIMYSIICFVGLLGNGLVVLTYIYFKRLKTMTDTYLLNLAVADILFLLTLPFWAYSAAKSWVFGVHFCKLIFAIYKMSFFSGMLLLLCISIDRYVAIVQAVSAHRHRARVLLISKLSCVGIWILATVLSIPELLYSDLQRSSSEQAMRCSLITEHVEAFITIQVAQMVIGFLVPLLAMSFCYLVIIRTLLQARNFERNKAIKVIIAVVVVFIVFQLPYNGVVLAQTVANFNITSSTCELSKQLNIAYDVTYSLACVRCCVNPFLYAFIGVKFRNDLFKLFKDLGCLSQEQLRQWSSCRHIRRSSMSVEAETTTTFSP

[3] = target: T3, 168 GPCRs (Homo sapiens, UniProt P49238)
T3 construct: host or cells: PathHunter cell lines
T3 sequence (P49238 1-355): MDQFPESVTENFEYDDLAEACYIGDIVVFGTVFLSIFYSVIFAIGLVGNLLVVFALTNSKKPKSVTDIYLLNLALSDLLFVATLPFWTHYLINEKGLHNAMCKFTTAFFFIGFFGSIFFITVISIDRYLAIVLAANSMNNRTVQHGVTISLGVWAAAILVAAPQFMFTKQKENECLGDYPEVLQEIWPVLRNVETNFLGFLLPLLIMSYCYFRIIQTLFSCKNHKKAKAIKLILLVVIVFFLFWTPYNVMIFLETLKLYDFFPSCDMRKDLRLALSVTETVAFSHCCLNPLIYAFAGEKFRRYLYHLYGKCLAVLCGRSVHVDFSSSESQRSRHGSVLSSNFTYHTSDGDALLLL

[4] = target: T4, 168 GPCRs (Homo sapiens, UniProt P30939); conditions: HTR1F
T4 construct: host or cells: PathHunter cell lines
T4 sequence (P30939 1-366): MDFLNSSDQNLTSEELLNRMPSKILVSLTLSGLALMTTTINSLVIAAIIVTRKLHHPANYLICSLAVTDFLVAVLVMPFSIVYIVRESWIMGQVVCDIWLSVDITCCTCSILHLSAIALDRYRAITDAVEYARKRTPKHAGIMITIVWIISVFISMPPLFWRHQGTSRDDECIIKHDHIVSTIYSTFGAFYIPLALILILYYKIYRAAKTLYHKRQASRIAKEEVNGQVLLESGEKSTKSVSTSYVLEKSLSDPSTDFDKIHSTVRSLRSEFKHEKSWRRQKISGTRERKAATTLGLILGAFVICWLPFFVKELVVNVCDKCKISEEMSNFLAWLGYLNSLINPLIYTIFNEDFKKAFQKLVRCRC

[5] = target: T5, 168 GPCRs (Homo sapiens, UniProt P21918)
T5 construct: host or cells: PathHunter cell lines

[6] = target: T6, 168 GPCRs (Homo sapiens, UniProt P21462)
T6 construct: host or cells: PathHunter cell lines
T6 sequence (P21462 1-350): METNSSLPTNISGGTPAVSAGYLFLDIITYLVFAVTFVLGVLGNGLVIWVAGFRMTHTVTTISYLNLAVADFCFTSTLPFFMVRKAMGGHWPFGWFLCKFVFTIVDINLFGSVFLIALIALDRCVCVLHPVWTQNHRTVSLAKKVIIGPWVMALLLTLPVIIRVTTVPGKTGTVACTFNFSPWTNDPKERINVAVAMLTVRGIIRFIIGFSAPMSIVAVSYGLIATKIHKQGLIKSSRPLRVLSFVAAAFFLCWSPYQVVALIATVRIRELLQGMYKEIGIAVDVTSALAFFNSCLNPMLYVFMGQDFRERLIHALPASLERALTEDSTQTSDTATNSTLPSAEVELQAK

T5 sequence (P21918 whole entry): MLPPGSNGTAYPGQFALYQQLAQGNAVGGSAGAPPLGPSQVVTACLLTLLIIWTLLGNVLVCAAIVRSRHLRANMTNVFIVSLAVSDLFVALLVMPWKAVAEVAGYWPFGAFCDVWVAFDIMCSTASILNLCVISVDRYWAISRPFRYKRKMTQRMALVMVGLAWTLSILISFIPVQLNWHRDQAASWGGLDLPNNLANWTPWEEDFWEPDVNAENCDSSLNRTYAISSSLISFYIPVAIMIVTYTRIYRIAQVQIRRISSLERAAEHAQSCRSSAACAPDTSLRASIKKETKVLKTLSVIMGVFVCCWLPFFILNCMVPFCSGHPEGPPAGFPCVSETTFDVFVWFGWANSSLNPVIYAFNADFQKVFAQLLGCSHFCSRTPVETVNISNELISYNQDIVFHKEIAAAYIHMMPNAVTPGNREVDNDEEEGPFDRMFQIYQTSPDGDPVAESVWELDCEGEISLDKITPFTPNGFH

Compound | % Agonist Activity ([1]; Conc 1 uM) | % Antagonist Activity ([1]; Conc 1 uM) | % Agonist Activity ([1]; Conc 10 uM) | % Antagonist Activity ([1]; Conc 10 uM) | % Agonist Activity ([2]; CCR7, 1 uM) | % Antagonist Activity ([2]; CCR7, 1 uM) | % Agonist Activity ([2]; CCR7, 10 uM) | % Antagonist Activity ([2]; CCR7, 10 uM) | % Agonist Activity ([3]; CX3CR1, 1 uM) | % Antagonist Activity ([3]; CX3CR1, 1 uM) | % Agonist Activity ([3]; CX3CR1, 10 uM) | % Antagonist Activity ([3]; CX3CR1, 10 uM) | % Agonist Activity ([4]; 1 uM) | % Antagonist Activity ([4]; 1 uM) | % Agonist Activity ([4]; 10 uM) | % Antagonist Activity ([4]; 10 uM) | % Agonist Activity ([5]; DRD5, 1 uM) | % Antagonist Activity ([5]; DRD5, 1 uM) | % Agonist Activity ([5]; DRD5, 10 uM) | % Antagonist Activity ([5]; DRD5, 10 uM) | other results
CNC(C)C(=O)c1ccc2c(c1)OCO2 (stereo not drawn) [methylone] | 4.5% | -6.2% | 1.9% | -5.7% | -3.4% | -8.3% | -3.7% | -3.4% | 0% | -0.2% | -0.4% | -6.1% | -4.4% | 14.4% | -3% | 9.2% | -0.1% | -5.9% | -0.2% | -2.6% | % Agonist Activity ([6]; FPR1, 1 uM): 2.2%; % Antagonist Activity ([6]; FPR1, 1 uM): -4.9%; % Agonist Activity ([6]; FPR1, 10 uM): 0.5%; % Antagonist Activity ([6]; FPR1, 10 uM): -11.4%
CNC(C)Cc1ccc2c(c1)OCO2 (stereo not drawn) [MDMA, 3,4-Methylenedioxy methamphetamine, reference compound] | 3.5% | 5.2% | 3.6% | 4.2% | 1.9% | 1.5% | 2.6% | 6.8% | -1.3% | 6.5% | -1.4% | 3.7% | 10.9% | 14.6% | 8.5% | 10.8% | 1.7% | 10.8% | 1.4% | 10.5% | % Agonist Activity ([6]; FPR1, 1 uM): 4.4%; % Antagonist Activity ([6]; FPR1, 1 uM): 4.5%; % Agonist Activity ([6]; FPR1, 10 uM): 3.7%; % Antagonist Activity ([6]; FPR1, 10 uM): 2.5%
